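These data come from cells grown in 96-well plates and exposed to compound for 48 hours at five concentrations. Abbreviation: GI50, concentration required for 50% inhibition of growth. Definition used: TGI = concentration required for complete inhibition of growth.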
Tests used:
Assay in all cases: NCI tumour cell line growth inhibition, 48 h
[1] = tested on: NCI-H23 lung
[2] = tested on: SW-620 colon
[3] = tested on: KM12 colon
[4] = tested on: NCI-H226 lung
[5] = tested on: SR leukemia
[6] = tested on: MCF7 breast
[7] = tested on: BT-549 breast
[8] = tested on: UO-31 renal
[9] = tested on: HS 578T breast
[10] = tested on: SK-MEL-28 melanoma
[11] = tested on: HOP-92 NSCLC
[12] = tested on: 786-0 renal
[13] = tested on: MOLT-4 leukemia
[14] = tested on: CAKI-1 renal
[15] = tested on: SF-539 CNS
[16] = tested on: UACC-62 melanoma
[17] = tested on: MDA-MB-435
[18] = tested on: K-562 leukemia
[19] = tested on: MDA-MB-231 breast
[20] = tested on: PC-3 prostate
[21] = tested on: OVCAR-8 ovarian
[22] = tested on: HT29 colon
[23] = tested on: ACHN renal
[24] = tested on: OVCAR-5 ovarian
[25] = tested on: RXF 393 renal
[26] = tested on: NCI/ADR-RES ovarian
[27] = tested on: T-47D breast
[28] = tested on: RPMI-8226 leukemia
[29] = tested on: UACC-257 melanoma
[30] = tested on: U251 CNS
[31] = tested on: CCRF-CEM leukemia
[32] = tested on: SN12C renal
[33] = tested on: OVCAR-4 ovarian
[34] = tested on: SF-268 CNS
[35] = tested on: HOP-62 NSCLC
[36] = tested on: HCT-116 colon
[37] = tested on: NCI-H522 lung
[38] = tested on: SK-OV-3 ovarian
[39] = tested on: NCI-H460 lung
[40] = tested on: SK-MEL-2 melanoma
[41] = tested on: SK-MEL-5 melanoma
[42] = tested on: MALME-3M melanoma
[43] = tested on: HCT-15 colon
[44] = tested on: M14 melanoma
[45] = tested on: SNB-19 CNS
[46] = tested on: IGROV1 ovarian
[47] = tested on: SNB-75 CNS
[48] = tested on: A549 NSCLC
[49] = tested on: TK-10 renal
[50] = tested on: DU-145 prostate
[51] = tested on: HL-60(TB) leukemia
[52] = tested on: SF-295 CNS
[53] = tested on: A498 renal
[54] = tested on: HCC-2998 colon
[55] = tested on: COLO 205 colon
[56] = tested on: EKVX NSCLC

Question: Which GI50 [1] does the source give for `CN(Cc1ccccc1)S(=O)(=O)/N=C1\NC(=O)NC1=C(Cl)Cl` here?
Answer: 1.79 µM

Question: And the TGI [1]?
Answer: 3.55 µM

Question: And the GI50 [2]?
Answer: 1.8 µM

Question: And the TGI [2]?
Answer: 3.55 µM

Question: What about the GI50 [3] of the same molecule?
Answer: 0.27 µM

Question: And the TGI [3]?
Answer: 0.744 µM

Question: What about the GI50 [4] of the same molecule?
Answer: 2.21 µM

Question: And the TGI [4]?
Answer: 5.42 µM

Question: And the GI50 [5]?
Answer: 0.525 µM

Question: What about the TGI [5] of the same molecule?
Answer: 11.5 µM

Question: What about the GI50 [6] of the same molecule?
Answer: 0.338 µM

Question: And the TGI [6]?
Answer: 13.5 µM

Question: What about the GI50 [7] of the same molecule?
Answer: 1.88 µM

Question: What about the TGI [7] of the same molecule?
Answer: 3.47 µM

Question: What about the GI50 [8] of the same molecule?
Answer: 2.45 µM

Question: And the TGI [8]?
Answer: 10.4 µM

Question: And the GI50 [9]?
Answer: 2.82 µM

Question: And the TGI [9]?
Answer: 8.87 µM

Question: What about the GI50 [10] of the same molecule?
Answer: 1.77 µM

Question: And the TGI [10]?
Answer: 3.29 µM

Question: What about the GI50 [11] of the same molecule?
Answer: 1.74 µM

Question: And the TGI [11]?
Answer: 3.36 µM

Question: And the GI50 [12]?
Answer: 2.06 µM

Question: And the TGI [12]?
Answer: 4.6 µM

Question: What about the GI50 [13] of the same molecule?
Answer: 2.52 µM

Question: What about the TGI [13] of the same molecule?
Answer: 7.03 µM

Question: What about the GI50 [14] of the same molecule?
Answer: 1.67 µM

Question: And the TGI [14]?
Answer: 3.12 µM

Question: And the GI50 [15]?
Answer: 1.74 µM

Question: What about the TGI [15] of the same molecule?
Answer: 3.25 µM

Question: What about the GI50 [16] of the same molecule?
Answer: 1.73 µM

Question: And the TGI [16]?
Answer: 3.32 µM

Question: What about the GI50 [17] of the same molecule?
Answer: 1.8 µM

Question: And the TGI [17]?
Answer: 3.45 µM

Question: What about the GI50 [18] of the same molecule?
Answer: 1.04 µM

Question: And the TGI [18]?
Answer: > 100 µM

Question: What about the GI50 [19] of the same molecule?
Answer: 1.79 µM

Question: And the TGI [19]?
Answer: 3.3 µM

Question: And the GI50 [20]?
Answer: 2.02 µM

Question: And the TGI [20]?
Answer: 4.39 µM

Question: And the GI50 [21]?
Answer: 2.37 µM

Question: What about the TGI [21] of the same molecule?
Answer: 6.26 µM

Question: And the GI50 [22]?
Answer: 2.07 µM

Question: And the TGI [22]?
Answer: 4.72 µM

Question: And the GI50 [23]?
Answer: 1.77 µM

Question: What about the TGI [23] of the same molecule?
Answer: 3.19 µM

Question: What about the GI50 [24] of the same molecule?
Answer: 1.69 µM

Question: And the TGI [24]?
Answer: 3.17 µM

Question: And the GI50 [25]?
Answer: 1.8 µM

Question: What about the TGI [25] of the same molecule?
Answer: 3.51 µM

Question: And the GI50 [26]?
Answer: 2.1 µM

Question: And the TGI [26]?
Answer: 4.96 µM

Question: What about the GI50 [27] of the same molecule?
Answer: 1.59 µM

Question: And the TGI [27]?
Answer: 21.8 µM

Question: What about the GI50 [28] of the same molecule?
Answer: 0.323 µM

Question: And the TGI [28]?
Answer: 1.9 µM

Question: What about the GI50 [29] of the same molecule?
Answer: 2.22 µM

Question: And the TGI [29]?
Answer: 5.29 µM

Question: And the GI50 [30]?
Answer: 1.83 µM

Question: And the TGI [30]?
Answer: 3.53 µM

Question: What about the GI50 [31] of the same molecule?
Answer: 1.94 µM

Question: And the TGI [31]?
Answer: 5.08 µM

Question: What about the GI50 [32] of the same molecule?
Answer: 1.81 µM

Question: And the TGI [32]?
Answer: 3.38 µM

Question: And the GI50 [33]?
Answer: 1.84 µM

Question: And the TGI [33]?
Answer: 3.64 µM

Question: What about the GI50 [34] of the same molecule?
Answer: 2.46 µM

Question: And the TGI [34]?
Answer: 7.02 µM

Question: What about the GI50 [35] of the same molecule?
Answer: 3.01 µM

Question: And the TGI [35]?
Answer: 11.5 µM

Question: What about the GI50 [36] of the same molecule?
Answer: 1.94 µM

Question: And the TGI [36]?
Answer: 3.81 µM

Question: What about the GI50 [37] of the same molecule?
Answer: 1.99 µM

Question: What about the TGI [37] of the same molecule?
Answer: 4.31 µM

Question: And the GI50 [38]?
Answer: 15.7 µM

Question: And the TGI [38]?
Answer: 29.2 µM

Question: And the GI50 [39]?
Answer: 2.39 µM

Question: And the TGI [39]?
Answer: 5.68 µM

Question: What about the GI50 [40] of the same molecule?
Answer: 2.76 µM

Question: And the TGI [40]?
Answer: 7.84 µM

Question: What about the GI50 [41] of the same molecule?
Answer: 2.05 µM

Question: What about the TGI [41] of the same molecule?
Answer: 4.27 µM

Question: What about the GI50 [42] of the same molecule?
Answer: 1.79 µM

Question: What about the TGI [42] of the same molecule?
Answer: 3.48 µM

Question: What about the GI50 [43] of the same molecule?
Answer: 1.52 µM

Question: And the TGI [43]?
Answer: 3.11 µM

Question: And the GI50 [44]?
Answer: 1.76 µM

Question: What about the TGI [44] of the same molecule?
Answer: 3.51 µM

Question: What about the GI50 [45] of the same molecule?
Answer: 2.23 µM

Question: What about the TGI [45] of the same molecule?
Answer: 5.32 µM

Question: And the GI50 [46]?
Answer: 1.88 µM

Question: And the TGI [46]?
Answer: 3.75 µM

Question: And the GI50 [47]?
Answer: 2.04 µM

Question: And the TGI [47]?
Answer: 9.32 µM

Question: And the GI50 [48]?
Answer: 3.9 µM

Question: And the TGI [48]?
Answer: 16.8 µM

Question: What about the GI50 [49] of the same molecule?
Answer: 2.47 µM

Question: And the TGI [49]?
Answer: 29.9 µM

Question: And the GI50 [50]?
Answer: 2.37 µM

Question: And the TGI [50]?
Answer: 5.34 µM

Question: And the GI50 [51]?
Answer: 2.08 µM

Question: And the TGI [51]?
Answer: 5.35 µM

Question: What about the GI50 [52] of the same molecule?
Answer: 3.51 µM

Question: What about the TGI [52] of the same molecule?
Answer: 12.2 µM

Question: What about the GI50 [53] of the same molecule?
Answer: 2.19 µM

Question: And the TGI [53]?
Answer: 6.31 µM

Question: What about the GI50 [54] of the same molecule?
Answer: 1.73 µM

Question: And the TGI [54]?
Answer: 3.3 µM

Question: And the GI50 [55]?
Answer: 1.96 µM

Question: What about the TGI [55] of the same molecule?
Answer: 3.98 µM

Question: What about the GI50 [56] of the same molecule?
Answer: 1.84 µM

Question: And the TGI [56]?
Answer: 3.81 µM
